In US7572794B2, “Anthranilamide pyridinureas as vascular endothelial growth factor (VEGF) receptor kinase inhibitors” (Bayer Schering Pharma AG, priority 2004, dated 2009):

Tests used:
KDR-Kinase (VEGFR-2) = target: T1, KDR-Kinase (VEGFR-2) (Homo sapiens, UniProt P35968); assay: KDR Kinase Inhibition; assay type: biochemical; conditions: GST-kinase domain fusion construct of KDR; poly(Glu4Tyr) substrate, 32P-ATP, 10 min
T1 construct: GST-kinase domain fusion construct of the KDR kinase; GST
Experimental: Kinase activity was measured with a GST-kinase domain fusion construct of the KDR kinase according to the following protocol to obtain concentration response curves. Components were added into a microtiterplate in the following sequence: 10 μl of inhibitor in threefold final concentration [3% DMSO in buffer (40 mM TrisCl pH 7.5; 1 mM DTT, 1 mM MnCl2, 10 mM MgCl2, 2.5 Promille Polyethyleneglycol 20000)]and 10 μl of substrate mixture [24 μM ATP, 24 μg/ml poly(Glu4Tyr) in buffer, specific activity approx. 500 cpm/pmol ^32P-[…]ATP]. Reaction was started by adding 10 μl of enzyme preparation diluted appropriately in buffer that contains 10 μM vanadate. After incubation for exactly 10 min the reaction was stopped by adding of 10 μl stop solution (250 mM EDTA). 10 μl of the reaction mixture were transferred to phosphocellulose filters. The filters were washed in 0.1% phosphoric acid, dried before meltilex scintillator was applied (Waltac, Perkin-Elmer) and the radioactivity was counted.

[1] = target: T2, Cytochrome P450 isoenzyme 2C19 (Homo sapiens, UniProt P33261); assay: Cytochrome P450 Inhibition (2C19); assay type: in vitro ADME; conditions: baculovirus/insect cell-expressed human isoenzyme, method of Crespi et al.; read-out: IC50 CYP 2C19
T2 construct: host or cells: baculovirus/insect cells
Experimental: (§1) Cytochrome P450 Inhibition
(§2) The Cytochrome P450 isoenzyme inhibition was performed according to the publication of Crespi et al. (Anal. Biochem., 1997, 248, 188-190) with use of the baculovirus/insect cell-expressed, human Cytochrome P 450 isoenzymes (2C9 and 2C19).

[2] = target: T3, Cytochrome P450 isoenzyme 2C9 (Homo sapiens, UniProt P11712); assay: Cytochrome P450 Inhibition (2C9); assay type: in vitro ADME; conditions: baculovirus/insect cell-expressed human isoenzyme, method of Crespi et al.; read-out: IC50 CYP 2C9
T3 construct: host or cells: baculovirus/insect cells
Experimental: as §1, §2

T3 sequence (P11712 whole entry): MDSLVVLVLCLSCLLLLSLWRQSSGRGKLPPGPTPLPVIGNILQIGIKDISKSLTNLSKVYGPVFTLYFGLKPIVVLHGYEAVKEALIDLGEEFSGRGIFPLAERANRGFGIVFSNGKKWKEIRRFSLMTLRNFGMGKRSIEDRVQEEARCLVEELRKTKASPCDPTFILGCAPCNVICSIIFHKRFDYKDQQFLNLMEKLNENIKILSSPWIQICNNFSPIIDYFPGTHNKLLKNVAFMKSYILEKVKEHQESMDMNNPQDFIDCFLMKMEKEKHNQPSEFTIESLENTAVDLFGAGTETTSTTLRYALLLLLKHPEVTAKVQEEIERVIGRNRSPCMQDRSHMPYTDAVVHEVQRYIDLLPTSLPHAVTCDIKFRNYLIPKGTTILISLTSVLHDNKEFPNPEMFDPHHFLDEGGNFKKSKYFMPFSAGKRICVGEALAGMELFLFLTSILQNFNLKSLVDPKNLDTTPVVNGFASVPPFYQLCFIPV
T1 sequence (P35968 834-1162 limits assumed, species assumed): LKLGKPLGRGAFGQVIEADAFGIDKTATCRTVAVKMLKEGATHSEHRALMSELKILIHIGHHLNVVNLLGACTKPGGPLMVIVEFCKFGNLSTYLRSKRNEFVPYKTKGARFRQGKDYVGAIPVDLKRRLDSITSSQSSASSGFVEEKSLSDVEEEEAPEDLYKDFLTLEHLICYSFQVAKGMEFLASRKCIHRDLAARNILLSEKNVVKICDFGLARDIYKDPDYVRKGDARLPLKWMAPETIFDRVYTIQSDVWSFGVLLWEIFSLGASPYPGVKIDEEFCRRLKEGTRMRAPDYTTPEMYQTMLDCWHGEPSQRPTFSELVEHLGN
T2 sequence (P33261 whole entry): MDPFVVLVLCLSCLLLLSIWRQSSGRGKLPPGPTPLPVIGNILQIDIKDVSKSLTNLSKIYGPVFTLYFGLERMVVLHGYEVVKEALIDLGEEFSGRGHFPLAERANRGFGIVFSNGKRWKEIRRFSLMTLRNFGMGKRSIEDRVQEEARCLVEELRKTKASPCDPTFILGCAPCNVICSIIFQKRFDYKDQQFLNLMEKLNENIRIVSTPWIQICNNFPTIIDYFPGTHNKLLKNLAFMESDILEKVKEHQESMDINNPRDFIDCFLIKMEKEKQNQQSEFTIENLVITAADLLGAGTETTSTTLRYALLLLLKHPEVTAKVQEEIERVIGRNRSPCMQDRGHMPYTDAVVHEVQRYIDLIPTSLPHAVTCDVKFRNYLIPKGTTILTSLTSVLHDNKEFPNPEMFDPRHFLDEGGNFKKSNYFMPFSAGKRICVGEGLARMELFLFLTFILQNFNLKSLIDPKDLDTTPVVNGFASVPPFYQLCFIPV

Row | IC50 (KDR-Kinase (VEGFR-2)) [nM] | IC50 [1] [µM] | IC50 [2] [µM] | SMILES
1 | 29 | 8.9 | 4.4 | CN1CCN(C(=O)Nc2cc(CNc3ccccc3C(=O)Nc3ccc4cn(C)nc4c3)ccn2)CC1 [Example 3.0, 4-methyl-piperazine-1-carboxylic acid (4-{[2-(2-methyl-2H-indazol-6-ylcarbamoyl)-phenylamino]-methyl}-pyridin-2-yl)-amide]
2 | 20 | 27 | 16 | Cn1cc2ccc(NC(=O)c3ccccc3NCc3ccnc(NC(=O)N4CCC(O)CC4)c3)cc2n1 [Example 1.1, 4-hydroxy-piperidine-1-carboxylic acid (4-{[2-(2-methyl-2H-indazol-6-ylcarbamoyl)-phenylamino]-methyl}-pyridin-2-yl)-amide]
3 | 17 | 12 | 19 | Cn1cc2ccc(NC(=O)c3ccccc3NCc3ccnc(NC(=O)N4CCC(O)(C(F)(F)F)CC4)c3)cc2n1 [Example 1.2, 4-hydroxy-4-trifluoromethyl-piperidine-1-carboxylic acid (4-{[2-(2-methyl-2H-indazol-6-ylcarbamoyl)-phenylamino]-methyl}-pyridin-2-yl)-amide]
4 | 29 | 9 | 13 | Cn1cc2ccc(NC(=O)c3ccccc3NCc3ccnc(NC(=O)N4CCOCC4)c3)cc2n1 [Example 3.6, morpholine-4-carboxylic acid (4-{[2-(2-methyl-2H-indazol-6-ylcarbamoyl)-phenylamino]-methyl}-pyridin-2-yl)-amide]
